# Results: ChEMBL document CHEMBL1201862, “PubChem BioAssay data set” (2004)
#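 Exposure lasted 48 hours, with cells grown in 96-well plates and compounds tested at five concentrations. GI50: concentration for 50% inhibition of growth.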 Active and inactive are the calls of the source. Rule as the data show it: active = GI50 up to about 1.1 µM and inactive = higher.
# Assays:
# Experiment in all cases: NCI tumour cell line growth inhibition, 48 h
# HCT-15 = tested on: HCT-15
# LOX IMVI = tested on: LOX IMVI
# KM12 = tested on: KM12
# SF-295 = tested on: SF-295
# RXF 393 = tested on: RXF 393
# NCI-H522 = tested on: NCI-H522
# Malme-3M = tested on: Malme-3M
# CCRF-CEM = tested on: CCRF-CEM
# U-251 = tested on: U-251
# RPMI-8226 = tested on: RPMI-8226
# NCI-H226 = tested on: NCI-H226
# A549 = tested on: A549
# HL-60 = tested on: HL-60
# PC-3 = tested on: PC-3
# CAKI-1 = tested on: CAKI-1
# TK-10 = tested on: TK-10
# OVCAR-4 = tested on: OVCAR-4
# SNB-19 = tested on: SNB-19
# NCI/ADR-RES = tested on: NCI/ADR-RES
# OVCAR-5 = tested on: OVCAR-5
# MDA-MB-231 = tested on: MDA-MB-231
# SN12C = tested on: SN12C
# SK-MEL-5 = tested on: SK-MEL-5
# MDA-MB-435 = tested on: MDA-MB-435
# K562 = tested on: K562
# SK-MEL-28 = tested on: SK-MEL-28
# NCI-H23 = tested on: NCI-H23
# SF-268 = tested on: SF-268
# UACC-62 = tested on: UACC-62
# NCI-H460 = tested on: NCI-H460
# OVCAR-8 = tested on: OVCAR-8
# EKVX = tested on: EKVX
# Hs-578T = tested on: Hs-578T
# HOP-92 = tested on: HOP-92
# HOP-62 = tested on: HOP-62
# 786-0 = tested on: 786-0
# ACHN = tested on: ACHN
# HT-29 = tested on: HT-29
# HCC 2998 = tested on: HCC 2998
# SK-MEL-2 = tested on: SK-MEL-2
# SR = tested on: SR
# COLO 205 = tested on: COLO 205
# M14 = tested on: M14
# UACC-257 = tested on: UACC-257
# MOLT-4 = tested on: MOLT-4
# IGROV-1 = tested on: IGROV-1
# MCF7 = tested on: MCF7
# UO-31 = tested on: UO-31
# MDA-N = tested on: MDA-N
# OVCAR-3 = tested on: OVCAR-3
# DU-145 = tested on: DU-145
# SW-620 = tested on: SW-620
# A498 = tested on: A498
# SF-539 = tested on: SF-539
# HCT-116 = tested on: HCT-116
# SK-OV-3 = tested on: SK-OV-3
# T47D = tested on: T47D
# SNB-75 = tested on: SNB-75
smiles,measurement,setting,value
N#C/C(C(=S)Nc1ccccc1)=C(/N)N1CCCC1,GI50,HCT-15,> 100 µM
same,GI50,LOX IMVI,> 100 µM (inactive)
same,GI50,KM12,> 100 µM (inactive)
same,GI50,SF-295,> 100 µM (inactive)
same,GI50,RXF 393,> 100 µM (inactive)
same,GI50,NCI-H522,> 100 µM (inactive)
same,GI50,Malme-3M,> 100 µM (inactive)
same,GI50,CCRF-CEM,> 100 µM (inactive)
same,GI50,U-251,> 100 µM (inactive)
same,GI50,RPMI-8226,> 100 µM (inactive)
same,GI50,NCI-H226,> 100 µM (inactive)
same,GI50,A549,> 100 µM (inactive)
same,GI50,HL-60,> 100 µM (inactive)
same,GI50,PC-3,> 100 µM (inactive)
same,GI50,CAKI-1,27.9 µM (inactive)
same,GI50,TK-10,> 100 µM (inactive)
same,GI50,OVCAR-4,> 100 µM (inactive)
same,GI50,SNB-19,> 100 µM (inactive)
same,GI50,NCI/ADR-RES,> 100 µM (inactive)
same,GI50,OVCAR-5,> 100 µM (inactive)
same,GI50,MDA-MB-231,> 100 µM (inactive)
same,GI50,SN12C,> 100 µM (inactive)
same,GI50,SK-MEL-5,> 100 µM (inactive)
same,GI50,MDA-MB-435,> 100 µM (inactive)
same,GI50,K562,> 100 µM (inactive)
same,GI50,SK-MEL-28,> 100 µM (inactive)
same,GI50,NCI-H23,> 100 µM (inactive)
same,GI50,SF-268,> 100 µM (inactive)
same,GI50,UACC-62,> 100 µM (inactive)
same,GI50,NCI-H460,> 100 µM (inactive)
same,GI50,OVCAR-8,> 100 µM (inactive)
same,GI50,EKVX,> 100 µM (inactive)
same,GI50,Hs-578T,> 100 µM (inactive)
same,GI50,HOP-92,62.5 µM (inactive)
same,GI50,HOP-62,> 100 µM (inactive)
same,GI50,786-0,> 100 µM (inactive)
same,GI50,ACHN,> 100 µM (inactive)
same,GI50,HT-29,> 100 µM (inactive)
same,GI50,HCC 2998,> 100 µM (inactive)
same,GI50,SK-MEL-2,> 100 µM (inactive)
same,GI50,SR,> 100 µM (inactive)
same,GI50,COLO 205,> 100 µM (inactive)
same,GI50,M14,> 100 µM (inactive)
same,GI50,UACC-257,> 100 µM (inactive)
same,GI50,MOLT-4,> 100 µM (inactive)
same,GI50,IGROV-1,> 100 µM (inactive)
same,GI50,MCF7,> 100 µM (inactive)
same,GI50,UO-31,46.7 µM (inactive)
same,GI50,MDA-N,> 100 µM (inactive)
same,GI50,OVCAR-3,> 100 µM (inactive)
same,GI50,DU-145,> 100 µM (inactive)
same,GI50,SW-620,> 100 µM (inactive)
same,GI50,A498,> 100 µM (inactive)
same,GI50,SF-539,> 100 µM (inactive)
same,GI50,HCT-116,> 100 µM (inactive)
CCOC(=O)C1=C(N2CCCC2)NC(=O)CC1=O,GI50,HCT-15,> 100 µM
same,GI50,LOX IMVI,> 100 µM (inactive)
same,GI50,KM12,> 100 µM (inactive)
same,GI50,SF-295,> 100 µM (inactive)
same,GI50,RXF 393,> 100 µM (inactive)
same,GI50,NCI-H522,> 100 µM (inactive)
same,GI50,Malme-3M,> 100 µM (inactive)
same,GI50,CCRF-CEM,> 100 µM (inactive)
same,GI50,U-251,> 100 µM (inactive)
same,GI50,RPMI-8226,> 100 µM (inactive)
same,GI50,NCI-H226,> 100 µM (inactive)
same,GI50,A549,> 100 µM (inactive)
same,GI50,HL-60,> 100 µM (inactive)
same,GI50,PC-3,> 100 µM (inactive)
same,GI50,CAKI-1,> 100 µM (inactive)
same,GI50,TK-10,> 100 µM (inactive)
same,GI50,OVCAR-4,> 100 µM (inactive)
same,GI50,SNB-19,> 100 µM (inactive)
same,GI50,NCI/ADR-RES,> 100 µM (inactive)
same,GI50,OVCAR-5,> 100 µM (inactive)
same,GI50,MDA-MB-231,> 100 µM (inactive)
same,GI50,SN12C,> 100 µM (inactive)
same,GI50,SK-MEL-5,> 100 µM (inactive)
same,GI50,MDA-MB-435,> 100 µM (inactive)
same,GI50,K562,> 100 µM (inactive)
same,GI50,SK-MEL-28,> 100 µM (inactive)
same,GI50,NCI-H23,> 100 µM (inactive)
same,GI50,SF-268,> 100 µM (inactive)
same,GI50,UACC-62,> 100 µM (inactive)
same,GI50,OVCAR-8,> 100 µM (inactive)
same,GI50,EKVX,> 100 µM (inactive)
same,GI50,Hs-578T,> 100 µM (inactive)
same,GI50,HOP-92,> 100 µM (inactive)
same,GI50,HOP-62,> 100 µM (inactive)
same,GI50,786-0,> 100 µM (inactive)
same,GI50,ACHN,> 100 µM (inactive)
same,GI50,SK-OV-3,> 100 µM (inactive)
same,GI50,HT-29,> 100 µM (inactive)
same,GI50,T47D,63 µM (inactive)
same,GI50,HCC 2998,> 100 µM (inactive)
same,GI50,SK-MEL-2,> 100 µM (inactive)
same,GI50,SR,> 100 µM (inactive)
same,GI50,COLO 205,> 100 µM (inactive)
same,GI50,M14,> 100 µM (inactive)
same,GI50,UACC-257,> 100 µM (inactive)
same,GI50,MOLT-4,> 100 µM (inactive)
same,GI50,IGROV-1,> 100 µM (inactive)
same,GI50,UO-31,> 100 µM (inactive)
same,GI50,MDA-N,> 100 µM (inactive)
same,GI50,OVCAR-3,> 100 µM (inactive)
same,GI50,DU-145,> 100 µM (inactive)
same,GI50,SW-620,> 100 µM (inactive)
same,GI50,A498,> 100 µM (inactive)
same,GI50,SF-539,> 100 µM (inactive)
same,GI50,HCT-116,> 100 µM (inactive)
O=C1c2scc(-c3ccc(Cl)cc3)c2-n2cccc21,GI50,LOX IMVI,> 100 µM (inactive)
same,GI50,KM12,5.25 µM (inactive)
same,GI50,SF-295,> 100 µM (inactive)
same,GI50,RXF 393,> 100 µM (inactive)
same,GI50,NCI-H522,2.98 µM (inactive)
same,GI50,Malme-3M,> 100 µM (inactive)
same,GI50,CCRF-CEM,> 100 µM (inactive)
same,GI50,RPMI-8226,> 100 µM (inactive)
same,GI50,A549,> 100 µM (inactive)
same,GI50,PC-3,> 100 µM (inactive)
same,GI50,OVCAR-5,> 100 µM (inactive)
same,GI50,SNB-75,2.4 µM (inactive)
same,GI50,MDA-MB-231,14 µM (inactive)
same,GI50,SK-MEL-5,> 100 µM (inactive)
same,GI50,MDA-MB-435,8.04 µM (inactive)
same,GI50,K562,3.93 µM (inactive)
same,GI50,SK-MEL-28,> 100 µM (inactive)
same,GI50,UACC-62,7.13 µM (inactive)
same,GI50,NCI-H460,> 100 µM (inactive)
same,GI50,EKVX,2.47 µM (inactive)
same,GI50,Hs-578T,1.95 µM (inactive)
same,GI50,ACHN,> 100 µM (inactive)
same,GI50,SK-OV-3,> 100 µM (inactive)
same,GI50,T47D,> 100 µM (inactive)
same,GI50,HCC 2998,> 100 µM (inactive)
same,GI50,SK-MEL-2,> 100 µM (inactive)
same,GI50,SR,2.84 µM (inactive)
same,GI50,COLO 205,> 100 µM (inactive)
same,GI50,M14,50.5 µM (inactive)
same,GI50,UACC-257,> 100 µM (inactive)
same,GI50,MOLT-4,73.3 µM (inactive)
same,GI50,IGROV-1,3.17 µM (inactive)
same,GI50,MDA-N,8.65 µM (inactive)
same,GI50,OVCAR-3,> 100 µM (inactive)
same,GI50,DU-145,> 100 µM (inactive)
same,GI50,SW-620,> 100 µM (inactive)
same,GI50,A498,1.11 µM (active)
CC1OC(O[C@H]2/C=C/C=C/C=C/C=C/C=C/C=C/C=C/[C@H](C)[C@@H](O)[C@@H](C)[C@H](C)OC(=O)C[C@H](O)C[C@H](O)CC[C@@H](O)[C@H](O)C[C@H](O)C[C@]3(O)C[C@H](O)[C@@H](C(=O)O)[C@H](C2)O3)C(O)C(N)C1O (stereo partly specified),GI50,KM12,20.5 µM (inactive)
same,GI50,RXF 393,5.64 µM (inactive)
same,GI50,NCI-H522,8.87 µM (inactive)
same,GI50,CCRF-CEM,6.15 µM (inactive)
same,GI50,NCI-H226,> 100 µM (inactive)
same,GI50,PC-3,16.3 µM (inactive)
same,GI50,OVCAR-4,18.2 µM (inactive)
same,GI50,K562,60.4 µM (inactive)
same,GI50,Hs-578T,9.25 µM (inactive)
same,GI50,HOP-92,32.2 µM (inactive)
same,GI50,786-0,4.4 µM (inactive)
same,GI50,SK-OV-3,37.3 µM (inactive)
same,GI50,HT-29,21.8 µM (inactive)
same,GI50,HCC 2998,28.5 µM (inactive)
same,GI50,SK-MEL-2,36.7 µM (inactive)
same,GI50,SR,2.35 µM (inactive)
same,GI50,COLO 205,24.3 µM (inactive)
same,GI50,IGROV-1,10 µM (inactive)
same,GI50,MCF7,20.5 µM (inactive)
same,GI50,UO-31,1.79 µM (inactive)
same,GI50,MDA-N,7.69 µM (inactive)
same,GI50,OVCAR-3,15.9 µM (inactive)
same,GI50,SW-620,11.6 µM (inactive)
same,GI50,HCT-116,24.3 µM (inactive)
